The term melting point denotes the temperature, or range, at which the solid turns liquid.

With `c1ccc2c(c1)CCN2Nc1ccncc1`, the melting point lay within 125 to 126 °C.

For `CCCc1ccc(NC=C(C(=O)OCC)C(=O)c2ccccc2Cl)cc1`, the melting point lay in the range of 98.5 to 104 °C. The result for `O=C(Nc1ccc(F)cc1)C1=C(C(=O)Nc2cc(OC3CCCC3)c(Cl)cc2F)CCCC1` reads 209 to 210 °C; that for `CCOC(=O)c1cccc(-c2cc3c(Nc4cccc(Cl)c4)ncnc3[nH]2)c1`, above 300 °C. In the case of `CC(C)(C)OC(=O)Nc1ncc(F)s1` it was 157 to 159 °C; in that of `CCCCOC(=O)[C@H]1NC(=O)[C@H]1N` (relative stereo), 87 to 89 °C. `COCCCS(=O)(=O)NC(=O)/C=C/c1ccc(OC(C)C)cc1Oc1ncc(C(F)(F)F)cc1Cl` displayed a melting point of 130 °C. As for `COc1c(Cc2ccccc2)cc(C(=O)c2cccs2)c2ccccc12`, the melting point lay within 111 to 113 °C.

Consider `CCSc1cccc2c1C(=O)c1cccc(SCC)c1C2=O`, for which the melting point was in the range of 235 to 236 °C. `COC1=CC(=O)C(O)=C(CCCCCCC/C=C\CCCCCCCC2=C(O)C(=O)C(C)=C(OC)C2=O)C1=O` had a melting point of 88 to 90 °C. The result for `Nc1ccccc1CNC1CCC(=O)NC1=O` (stereo not drawn) reads 48 to 54 °C; that for `Fc1ccc(C(OCCN2CCN(C(c3ccc(F)cc3)c3ccc(F)cc3)CC2)c2ccc(F)cc2)cc1`, 87 to 88 °C; that for `C[C@]1(CN2CCN(c3cc(-c4ccccc4)nc(-c4ccccc4)n3)CC2)Cn2cc([N+](=O)[O-])nc2O1`, 202 to 205 °C.

`CC#CC(=O)Nc1cccc(-c2ccnc3c(C(=O)c4cccs4)cnn23)c1` gave a melting point of 202 to 203 °C. In the case of `Cc1ccc(S(=O)(=O)N2CCC[C@H]2C(=O)N[C@@H](Cc2ccccc2)C(=O)NOCc2ccccc2)cc1` it was 127 to 130 °C; in that of `Nc1cc(N2CCCC2=O)c(Cl)cc1Cl`, 168 to 170 °C; in that of `CCC(=O)c1ccc(OC)c(OC(=O)CCl)c1`, 77 to 79.5 °C. The result for `CCCN1CCN(c2nc(C)c(C(=O)NCc3cccnc3)s2)C1=O` reads 109 to 111 °C; that for `CN(C)Cc1cc(C(C)(C)C)cc(C(C)(C)C)c1O`, 54 to 56 °C; that for `COc1cccc(C(=O)Nc2nnn[nH]2)c1[N+](=O)[O-]`, 271 °C. `COC(=O)C1CCC2C3CCC4CC(O)C(OC)CC4(C)C3C(NC3CCCCC3)CC12C` (stereo not drawn) yielded a melting point of 141 to 143 °C.

Compound `C=CCN(CC=C)c1nc(NC(=O)OCC(C)C)n2oc(=O)nc2n1` gave a melting point of 161 to 163 °C.

As for `Cn1cc(-c2cc(-c3cnc4[nH]ccc4c3)ccn2)n(-c2ccc(CC#N)cc2)c1=O`, the melting point stood at 252 °C.

Consider `CCOC(=O)[C@H](Cc1ccc(-c2c(C)n(C)c(=O)n(C)c2=O)cc1)NC(=O)c1c(Cl)cccc1Cl`, for which the melting point was in the range of 262 to 265 °C. The compound `COc1cccc(CC(=O)O)c1OCCc1ccccc1` registered a melting point of 88 to 89 °C. As to `Cc1sc(N)c(C(=O)c2ccc(Br)s2)c1C`, the melting point was in the range of 128 to 130 °C. `CCOc1cn(C)cc(-c2cccc(C(F)(F)F)c2)c1=O`: the melting point was in the range of 131 to 133 °C. In the case of `O=CC(Cc1ccccc1)N1C(=O)c2ccccc2C1=O` (stereo not drawn) it was 115 to 117 °C; in that of `C/C(=C\C(=O)Nc1ccccc1C(=O)O)c1ccc(OC(F)F)c(OC(F)F)c1`, 170 to 173 °C. In the case of `O=C(NCc1cc(Br)cc2[nH]c(=O)c(=O)[nH]c12)C(O)c1ccccc1` (stereo not drawn), the melting point is above 280 °C. In the case of `COc1ccc2c(C3=CCN(C[C@H](O)COc4cccc5[nH]ccc45)CC3)c[nH]c2c1` it was 155 to 160 °C; in that of `Oc1ccc(-c2nc(-c3ccc(Cl)cc3)nc(-c3ccc(O)cc3O)n2)c(O)c1`, 232 to 234 °C.

The compound `Cc1cc(=O)on1C(=O)c1ccc(Cl)cc1Cl` came in with a melting point of 137 to 139 °C.

With `CCC(CC)C(NS(=O)(=O)c1ccc(Br)s1)c1ccnn1-c1ccccc1` (stereo not drawn), the melting point is 120 to 121 °C. In the case of `COc1ccc(CN2C(=O)C(C)(c3cc(NC=O)ccc3Cl)c3cc(Cl)ccc32)c(OC)c1` (stereo not drawn) it was 190 °C; in that of `CC(C)N1C(=O)N(c2ccc([N+](=O)[O-])c(C(F)(F)F)c2)C(=O)C1(C)C`, 130 °C. The compound `CCCCc1c(Cl)ncnc1Cl` registered a melting point of 62 to 63 °C. In the case of `Cc1cc2ncc(-c3ccsc3)nc2cc1C` it was 142 to 144 °C; in that of `COc1cc(-c2cc(C(C)C)nn2C)cc2oc(=O)c(C)c(C)c12`, 125 to 126 °C; in that of `COc1ccc(C(=CC(=O)N2CCOCC2)c2ccc(NC(=O)c3ccc(Cl)cc3)cc2)cc1OC`, 197 to 207 °C. As for `CCn1cc(C(=O)O)c(=O)c2cc(F)c(-c3cc(C)nc(C)c3)cc21`, the melting point was above 310 °C.

On to `CON=C(C(=O)NN)c1ccccc1COc1cc(C)ccc1C`, for which the melting point lay in the range of 124 to 126 °C. The result for `O=C(c1ccccc1)c1oc2ccccc2c1-c1ccc(-c2ccc(OC(Cc3ccccc3)C(=O)O)cc2)cc1` (stereo not drawn) reads 159 to 161 °C. In the case of `CCC1(CO)CS(=O)(=O)c2ccccc2C(c2ccccc2)=N1` (stereo not drawn) it was 170 to 171 °C; in that of `O=C(O)c1cn(C2CC2)c2c(F)c(F)c(F)c(F)c2c1=O`, 179 to 180 °C; in that of `CC(C)(C)OC(=O)NCC(=O)N[C@@H](Cc1ccccc1)C(=O)O`, 138 to 141 °C. The result for `Cc1c(CO)c(CO)c2n1Cc1c(c3ccccc3n1C)C2` reads 200 to 201 °C. On to `CCN(CC)C(=O)c1ccc2ccccc2c1/C=C/c1ccccc1`, for which the melting point lay within 86 to 89 °C. With `Nc1nc2c(s1)CCN(CCCCCc1ccccc1)CC2`, the melting point fell in the range of 102 to 105 °C. Regarding `CC(=O)OC1C(c2ccccc2)=C(c2ccc(S(C)(=O)=O)cc2)C1(C)C` (stereo not drawn), the melting point lay within 60 to 61 °C.

In the case of `Cn1ncc2c(c1=O)S(=O)(=O)CCNC2Cc1ccccc1` (stereo not drawn), the melting point fell in the range of 288 to 290 °C. In the case of `CCOC(=O)c1c(Cn2cncn2)nc2sc3c(c2c1-c1ccc(OC)c(OC)c1)CCCN3C(=O)OCc1ccccc1` it was 184 to 185 °C; in that of `CC(C)OC(=O)c1nnc2n1-c1ccc(Cl)cc1C(c1ccccc1Cl)=NC2`, 229 to 230 °C; in that of `COc1cc(C=C(CC(=O)N2CCOCC2)C(=O)O)cc(OC)c1OC`, 135 to 138 °C.

With `CN(C(=O)Nc1ccc(Cl)cc1)n1cnc2ccccc2c1=O`, the melting point was in the range of 186 to 188 °C. The result for `CCOC(=O)c1ccc2nc(N[C@@H]3CCc4ccccc43)ccc2c1` reads 137 °C; that for `N#Cc1ccc(N(Cc2ccc(O)c(Br)c2)n2cnnc2)cc1-c1ccoc1`, 200 to 201 °C; that for `CN(C)C(=O)c1sc(C(c2ccc(Cl)cc2)c2c(Cl)cc(-n3ncc(=O)[nH]c3=O)cc2Cl)nc1-c1ccccc1` (stereo not drawn), 150 °C. `CCOC(=O)c1cc2cc(OCCCS(C)(=O)=O)cc([N+](=O)[O-])c2[nH]1` yielded a melting point of 162 to 163 °C. The result for `CC(=O)Oc1ccc(-c2cnc(C)nc2Cl)cc1OC(C)=O` reads 111 °C; that for `COc1cccc(Oc2cccc(-c3c(O)c4ccc(Cl)cc4[nH]c3=O)c2)c1`, 268 to 270 °C. The compound `Nc1c(C(=O)O)sc2cc(F)ccc12` yielded a melting point of 160 to 163 °C. `COC(=O)c1c(O)c2cc(Cl)ccc2n1-c1ccccc1` registered a melting point of 170 to 173 °C.

The compound `O=Cc1ccc(C(F)(F)F)cc1Oc1ccccc1` gave a melting point of 57 to 59 °C.

`CCCn1c(=O)c2c(NC)n[nH]c2n(Cc2ccncc2)c1=O` showed a melting point above 300 °C. In the case of `COC(=O)c1cc(C(=O)OC)cc(-c2ccccc2)c1` it was 91 to 92 °C; in that of `CS(=O)(=O)Nc1cc2oc(N)cc(=O)c2cc1Oc1ccccc1`, 223 to 225 °C; in that of `CC(=O)Oc1c(C(C)(C)C)cc(C=O)cc1C(C)(C)C`, 65.2 to 74.5 °C. In the case of `O=C1NCCN1c1cccc([N+](=O)[O-])c1` it was 158 to 160 °C.

`CCOc1cc2ncc(C#N)c(Nc3ccc4c(c3)OCCO4)c2cc1OCC` came in with a melting point of 225 to 227 °C. The result for `Cc1nc2cc(Oc3cc(-c4ccc(C(F)(F)F)cc4)ccn3)ccc2s1` reads 160 to 164 °C. In the case of `Cc1cccc(COc2cccnc2NC(=N)Nc2ccc(Cl)cc2)c1F` it was 179 to 181 °C; in that of `O=C(c1cc(Cc2c[nH]cn2)ccc1O)N1CCCC1`, 96 to 98 °C. The result for `O=Cc1cc(Cl)cc2c1OC(C(F)(F)F)C(C(=O)O)=C2` (stereo not drawn) reads 243 to 252 °C; that for `CC(C)(C)c1ccc2oc(-c3ccc(O)cc3)cc2c1`, 172 to 174 °C. On to `CCCN(CCC)C1Cc2cc3c(cc2C1)C(=O)N(Cc1cccnc1)C3=O`, for which the melting point lay within 141 to 146 °C. The result for `COc1ccc(CN2CCc3nc(-c4ccccc4)c4c(c3C2)CO[C@@H](C)C4)cc1` reads 110 °C.

With `CC1COc2c(C3CC3)c(F)c(N)c3c(=O)c(C(=O)O)cn1c23` (stereo not drawn), the melting point was above 280 °C. The compound `O=C(O)CCc1c[nH]c2c(C(=O)c3ccccc3)cccc12` gave a melting point of 166 °C. The result for `CCCCc1nc2cc(C(=O)OC)ccc2n1Cc1ccc(-c2ccccc2-c2nnn[nH]2)cc1` reads 134 to 136 °C; that for `N#Cc1ccc(NCc2ccccc2)nc1`, 133 to 134 °C; that for `CCOC(=O)c1nccc(C#N)c1N`, 114 to 116 °C. Compound `CC1(C)C(c2ccc(S(C)(=O)=O)cc2)=C(c2ccccc2)C1O` (stereo not drawn) registered a melting point of 79 to 81 °C. In the case of `COn1c(=S)n(C)c(=O)c2ccccc21` it was 184 °C; in that of `Cc1ccccc1C1SC2(CCN(C)CC2)c2ccccc21` (stereo not drawn), 132 to 134 °C. Take `CS(=O)(=O)c1ccc(-n2nc(C(F)(F)F)cc2-c2ccc(-c3cscn3)c(F)c2)cc1`: the melting point was in the range of 176 to 178 °C.

`CCNc1nc2ccc(CCc3nc4cc(C)ccn4c3C)cc2s1` displayed a melting point of 165 to 166 °C.

Take `CC(C)c1cccc(C(C)C)c1NC(=O)CN1CCN(CCSc2nc3cccc([N+](=O)[O-])c3o2)CC1`: the melting point lay within 153 to 155 °C.

The values above are taken from a melting point compilation (Tetko et al.; mined from patent text by program, amines drawn as free bases though some values may be those of a salt).
